Source: patent publication US5441948A, “1,3,4-benzotraizepin-5(4H)-one derivatives and process for the preparation thereof” (priority 1992, dated 1995)

Experiments:
[1] = test system: isolated canine Purkinje fibres; experiment: Intracellular electrophysiology, action potential duration (50% and 90% repolarization) in isolated canine Purkinje fibres; format: cell-based, canine (mongrel dogs)
Description: I. Intracellular electrophysiological studies on isolated canine Purkinje fibres: study of the characteristics and the duration of the action potential
Mongrel dogs of both sexes, weighing 8-22 kg, were anaesthetized with intravenously administered sodium pentobarbital, 30 mg/kg (Nembutal®).The superficial Purkinje fibres were excised from the heart and placed in plastic organ bath containing Tyrode's solution ([…] of Na^+, 4.0 mM of K^+, 133.3 mM of Cl^-, 2.0 mM of Ca^2+, 22.0 mM of HCO3 -, 0.9 mM of H2 PO4^+, 0.7 mM of Mg^2+, 5.0 mM of glucose) The perfusate (Tyrode's solution) was gassed with a mixture of 95% of O^2 and 5% of CO2. Temperature of the organ bath was 37.0°±0.5° C. pH=7.3±0.5. Purkinje fibres were incubated for 1-2 hours in order to avoid spontaneous changes in the duration of action potential, to be observed often for a short period after the preparation completed. Conventional glass microelectrode method was used to measure intracellular action potentials. The electrodes were filled with 3M KCl solution, resistance was 5-15 Mohm. Microelectrodes were connected to high input-resistance capacity-neutralizing amplifier through a Ag-AgCl connection. Another electrode was placed in the organ bath as a reference electrode. Maximum rate of depolarization (Vmax) was measured with an electronic differentiating unit. The intracellular pulses were visualized on a two-channel oscilloscope by a microcomputer in on-line mode. The following parameters were measured: resting potential, action potential amplitude, 50% and 90% repolarizations, maximum rate of depolarization. Preparations were stimulated through silver electrodes insulated with PTFE. Parameters of stimuli were rectangular pulses of 1 ms duration with an intensity of two times the threshold. The basal stimulation periods were changed between 200 and 1000 msec. [Varre et al., J. Cardiovasc. Pharmacol. 11, 251 (1988)].
The applied dose of the compounds according to the invention is 10 mg/L.
Concentration of Pinacidil: 1 mg/L
Concentration of Nicorandil: 5 mg/L
APD: action potential duration

[2] = test system: vasopressin-induced ST elevation; experiment: Inhibitory effect on the vasopressin-induced ST elevation in anaesthetized rats; format: in vivo, CFY male rats; details: vasopressin 3 IE/kg i.v.
Description: II. Inhibitory effect on the vasopressin-induced ST elevation in anaesthetized rats
The studies were performed in 200-250 g CFY male rats. Animals were anaesthetized with intraperitoneally administered urethane ([…]), then subjected to ECG, using limb leads. Coronary spasm, reflected by elevated ST deflection in the ECG recordings, was induced by treating the rats with 3 IE/kg of vasopressin intravenously. […] Methods. 5, 325-336 (1981)].
Dose of compounds of the invention: 1 mg/kg, i.v. except where appears

[3] = result in words, characteristic of drugs with merely K+-channel-activating activity; cited from earlier work
[4] = 5.0 mg/kg i.v. pretreatment (*)

Compound | ADD90 Change (%) ([1]; 10 mg/L) | ARD50 Change (%) ([1]; 10 mg/L) | ADD90 after treatment ([1]; 10 mg/L) | ARD50 after treatment ([1]; 10 mg/L) | Inhibition (%) of vasopressin-induced ST elevation ([2]; 1 mg/kg, i.v. pretreatment) | also measured
CN1C(=O)c2ccccc2N=C(N=C(N)N2CCCCC2)N1Cc1ccccn1 [Example 22, 2-[amino-(1-piperidinyl)-methyleneamino]-3-(2-pyridylmethyl)-4-methyl-3,4-dihydro-1,3,4-benzotriazepin-5(4H)-one] | -10% | -39% | 219 ms | 97 ms | -59% | –
CN1C(=O)c2ccccc2N=C(NCc2cccnc2)N1CCCN1CCN(c2ccccc2)CC1 [Example 20, 2-(3-pyridylmethylamino)-3-[3-(4-phenyl-1-piperazinyl)-1-propyl]-4-methyl-3,4-dihydro-1,3,4-benzotriazepin-5 (4H)-one] | -5% | -42% | 227 ms | 79 ms | – | –
COc1cc(C(=O)OCCCN2C(N=C(N)N3CCCNCC3)=Nc3ccccc3C(=O)N2C)cc(OC)c1OC [Example 19, 2-[amino-(1-homopiperazinyl)-methyleneamino]-3-[3-(3,4,5-trimethoxybenzoyloxy)-1-propyl]-4-methyl-3,4-dihydro-1,3,4-benzotriazepin-5(4H)-one] | -9% | -25% | 237 ms | 121 ms | -59% | –
CC(NC1=Nc2ccccc2C(=O)N(C)N1)C(C)(C)C (stereo not drawn) [Example 18, 2-(3,3-dimethyl-2-butylamino)-4-methyl-3,4-dihydro-1,3,4-benzotriazepin-5(4H)-one] | -15% | -29% | 213 ms | 111 ms | – | –
O=C(NCCO[N+](=O)[O-])c1cccnc1 [Nicorandil, reference compound] | – | – | – | – | -12% | ADD90 Change (%) ([1]; Nicorandil 5 mg/L): -32%; ARD50 Change (%) ([1]; Nicorandil 5 mg/L): -41%; ADD90 after treatment ([1]; Nicorandil 5 mg/L): 179 ms; ARD50 after treatment ([1]; Nicorandil 5 mg/L): 107 ms; Inhibition (%) of vasopressin-induced ST elevation [2, 4]: -60%
CC(NC(N)=NC1=Nc2ccccc2C(=O)N(C)N1)C(C)(C)C (stereo not drawn) [Example 17, 2-[amino-(3,3-dimethyl-2-butylamino)-methyleneamino]-4-methyl-3,4-dihydro-1,3,4-benzotriazepin-5(4H)-one] | -13% | -42% | 221 ms | 91 ms | -68% | –
CN1NC(N=C(N)N2CCCCC2)=Nc2ccccc2C1=O [Example 4, 2-[Amino-(1-piperidinyl)-methyleneamino]-4-methyl-3,4-dihydro-4H-1,3,4-benzotriazepin-5-one] | -10% | -33% | 226 ms | 113 ms | – | Inhibition (%) of vasopressin-induced ST elevation [2, 4]: -36%
CC(N/C(=N\C#N)Nc1ccncc1)C(C)(C)C (stereo not drawn) [Pinacidil, reference compound] | – | – | – | – | – | ADD90 Change (%) ([1]; Pinacidil 1 mg/L): -45%; ARD50 Change (%) ([1]; Pinacidil 1 mg/L): -61%; ADD90 after treatment ([1]; Pinacidil 1 mg/L): 141 ms; ARD50 after treatment ([1]; Pinacidil 1 mg/L): 71 ms; unpleasant side-effects [3]: tachycardia and the so-called "first dose effect"
